A short description of the series: gradient 5% acetonitrile 3 min, to 50% in 2 min, to 85% in 15 min, held 3 min, 100 µL/min. To be noted: column: Zorbax Extend-C18 2.1 x 50 mm; eluents: water / acetonitrile, 0.1% formic acid. Put shortly:
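Retention times come from adduct peaks that were picked computationally and then checked by hand. The standards, pure and pooled in mixtures of ~100 molecules, were run on a Zorbax Extend-C18 column (2.1 × 50 mm, 1.8 μm) at 100 μL/min with water and acetonitrile, each with 0.1% formic acid. Detection was by quadrupole time-of-flight mass spectrometry in positive and negative ionization mode, with a dead volume of 40 μL and a dwell volume of 900 μL.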
As for `O=C(Nc1ccc(F)cc1)C1CCN(c2cc(N3CCCCC3)ncn2)CC1`, the RP-LC retention time is 696 s.

Molecule `Cc1ccc(C(=O)N2CCCCCCN(C)C(=O)[C@@H]3CCC[C@@H]32)s1` showed an RP-LC retention time of 912 s. Regarding `Cc1ccc(Nc2cc(C)nc(N3CCN(C(=O)Nc4ccc(Cl)cc4)CC3)n2)cc1`, the RP-LC retention time was determined as 908 s. The same measure for `Clc1cccc(CN2CCCN(c3ncccc3-c3nc(C4CC4)no3)CC2)c1`: 723 s; for `COC(=O)c1nnn(-c2nonc2N)c1CN1CCN(c2ccccn2)CC1`: 578 s; for `CCN1C(=O)COc2ccc(-c3noc(-c4ccc(C)c(C)c4)n3)cc21`: 1300 s. The result for `CCCCN1C(=O)C(CC(=O)NC(C)C)Sc2ncccc21` (stereo not given) reads 742 s; that for `O=c1ccn(-c2ccc(Cl)cc2)nc1-c1nc(-c2ccc(Cl)cc2)no1`, 1040 s. Take `COc1ccc(-n2ccn3cc(-c4ccc5c(c4)OCO5)nc3c2=O)cc1`: the RP-LC retention time was found to be 766 s. Molecule `Cc1cc(C)cc(NC(=O)N2CCC(n3cnc4ccccc4c3=O)CC2)c1` yielded an RP-LC retention time of 809 s. Consider `CN1C(=O)C(c2c(-c3ccc(Cl)cc3)[nH]c3[nH]c(=O)[nH]c(=O)c23)c2ccccc21` (stereo not given), for which the RP-LC retention time was 716 s.

Turning to `Cc1cnc(CCNC(=O)Nc2ccc3c(c2)OCCO3)n1C1CCC1`, the RP-LC retention time worked out at 517 s. `CC(=O)Nc1nsc(N2CCC(C(=O)N3CCN(c4ccccc4F)CC3)CC2)n1` registered an RP-LC retention time of 695 s. The same measure for `COCCNC(=O)c1csc(N2CCN(c3cccc(OC)c3)CC2)n1`: 855 s; for `COCCc1noc(C2Cc3ccccc3N2C(=O)NCc2ccc(C)cc2)n1` (stereo not given): 973 s. The result for `CC(C)OC(=O)COC(=O)c1cn(-c2cccc(F)c2)c(=O)c2ccccc12` reads 1110 s; that for `O=C1CN(c2ccccc2NC(=O)c2ccc[nH]c2=O)CCN1`, 588 s; that for `O=C(NCc1ccccc1)c1nnc(-c2ccc(S(=O)(=O)N3CCCCC3)cc2)o1`, 953 s. The same measure for `Cc1ccc(C(=O)N2CCc3cn(C)c4cccc(c34)C2)cc1F`: 997 s; for `Cc1nc(N2CCCC(C(=O)NC3CCCC3)C2)c2c(C)c(C)oc2n1` (stereo not given): 799 s. Molecule `COc1ccc(OC)c(S(=O)(=O)Nc2cc(-c3nc4cccnc4s3)ccc2C)c1` returned an RP-LC retention time of 888 s. The result for `Cn1c(=O)c(N2CCC(NC(=O)Nc3ccccc3)CC2)nc2ccccc21` reads 829 s. As to `CCCc1noc(-c2ccnc(-n3cnc(C(=O)NC4CCCCC4)c3)c2)n1`, the RP-LC retention time was determined as 973 s. The result for `CN(C)C[C@@H]1CN(c2ncccn2)C[C@H]1NC(=O)c1ccc(Cl)s1` reads 605 s. As for `CCCn1c(=O)sc2cc(S(=O)(=O)N3CCC(C(=O)NC4CCC(C)CC4)CC3)ccc21` (stereo not given), the RP-LC retention time was 1030 s. The result for `COc1ccc(-c2cc3c4nnc(CCC(=O)NCc5ccco5)n4ccn3n2)cc1` reads 665 s; that for `CC(C)n1c(N2CCN(C(=O)c3ccc(Br)o3)CC2)cc(=O)n(C(C)C)c1=O`, 870 s.

Molecule `Cc1cccc(S(=O)(=O)N2CC3CN(C(=O)CCC(C)C)CC(C2)O3)c1` showed an RP-LC retention time of 871 s. For the molecule `CCOc1ccccc1CN1C[C@@H](CO)[C@H](c2ccccn2)C1`, the RP-LC retention time was found to be 620 s. `Cc1ccccc1CNC(=O)C1(C)CCN(S(=O)(=O)c2ccc(C3CCCCC3)cc2)CC1` gave an RP-LC retention time of 1310 s. The result for `CC(C)NS(=O)(=O)c1ccc(Cl)c(-c2nnc(-c3ccccc3)o2)c1` reads 977 s; that for `CCOC(=O)c1cc(S(=O)(=O)N2CCCC2C(=O)N2CCC3(CC2)OCCO3)cn1C` (stereo not given), 720 s; that for `CCOc1ccc(-c2nc(CNC(=O)Nc3cc(OC)ccc3OC)c(C)o2)cc1`, 963 s. `CCC(C)(C)NS(=O)(=O)c1cc(-c2nc(C(C)(C)C)cs2)cs1` had an RP-LC retention time of 1300 s.

With `COc1cc(Nc2nc(-c3nnn(-c4cc(Cl)ccc4OC)c3C)ns2)cc(OC)c1`, the RP-LC retention time stood at 1070 s. `CCS(=O)(=O)c1ccc(-c2ccc(NC(=O)c3cc(Cl)ccc3Cl)cc2)nn1` gave an RP-LC retention time of 840 s. As for `CCCCN(C)C(=O)C1CCN(S(=O)(=O)c2ccc3c(c2)CCCC(=O)N3)CC1`, the RP-LC retention time stood at 719 s. Consider `CCc1ccc(CNC(=O)CCCN2C(=O)CCn3nc(C)cc32)cc1`, for which the RP-LC retention time was found to be 726 s.

Take `CCN(C(=O)c1cc2c(s1)N(CCOC)CCCC2)C(C)C`: the RP-LC retention time came out at 1070 s. Molecule `O=C(C1COc2ccccc2O1)N1CCN(c2cc(-c3ccc(Cl)cc3)[nH]n2)CC1` (stereo not given) registered an RP-LC retention time of 926 s.

In turn, `O=C(CCc1c(-c2cccc(Cl)c2)nc2ccccn12)N1CCN(c2ccccc2)CC1` returned an RP-LC retention time of 718 s. The same measure for `CCN1C(=O)C2CC3(CCN(C(=O)C4CCCCC4)CC3)CN2C1=O` (stereo not given): 738 s; for `COc1ccc(-c2nnc3sc(-c4ccc(N(C)C)cc4)nn23)cc1`: 1200 s. The molecule `O=C(CC1CCN(C(=O)NCc2ccccc2)CC1)NCc1ccc(F)cc1` gave an RP-LC retention time of 737 s. `O=C(COc1ccc(F)cc1)NC1(c2nc(-c3ccncc3)no2)CCCCC1` gave an RP-LC retention time of 934 s. The same measure for `Cc1ccccc1-c1noc(-c2nn(-c3ccc(Cl)cc3)ccc2=O)n1`: 1010 s; for `CN1C(=O)c2cccc3c(C(=O)c4ccccc4)ccc(c23)C1=O`: 921 s; for `CCC(Oc1ccccc1)C(=O)Nc1nc(-c2ccc(Cl)cc2)cs1` (stereo not given): 1240 s. As to `O=S(=O)(c1ccc2c(c1)CCC2)N1CCCn2nc(-c3cccnc3)cc2C1`, the RP-LC retention time stood at 714 s.

Take `CCCNC(=O)N(C1CCOCC1)C1CCN(C(=O)c2ccsc2)CC1`: the RP-LC retention time amounted to 680 s. The same measure for `Cc1ccc(OCCOCC(O)CN(CCO)CCO)cc1C` (stereo not given): 569 s; for `O=C(Cn1nc2c(N3CCCCCC3)nccn2c1=O)NC1CCCCC1`: 681 s; for `O=S(=O)(c1ccc(F)cc1)N1CCN(c2cnn3cnnc3c2)CC1`: 653 s. The result for `CCOC(=O)c1c(C)c(CCC(=O)N2CCN(CC)CC2)n(CC)c1C` reads 631 s; that for `CCOc1ccc(-c2c(C#N)c(N)nc(SCC(=O)OCc3ccccc3)c2C#N)cc1`, 997 s. The same measure for `Cc1ccc2[nH]cc(CCN3CC(C(=O)N4CCCCC4)CC3=O)c2c1` (stereo not given): 768 s; for `Cc1ccc(NC(=O)CN2CCc3c(c(=O)c4cc(C)ccc4n3C)C2)cc1`: 649 s. Molecule `CCN(CC)CCNC(=O)C1CCN(c2nccnc2Sc2ccccc2)CC1` gave an RP-LC retention time of 657 s.

`Cc1sc(NC(=O)CCCC(=O)O)nc1-c1ccccc1` had an RP-LC retention time of 752 s.

Molecule `COC(=O)c1c(NCC(C)C)c2cccc(Cl)c2[nH]c1=O` returned an RP-LC retention time of 792 s. For the molecule `COc1ccc(NC(=O)CSc2cc(C)nc(-c3cnccn3)n2)cc1Cl`, the RP-LC retention time turned out to be 757 s. Molecule `COc1ccc(Cl)cc1NC(=O)Cn1nc(N2CCCC2)c2ccccc2c1=O` had an RP-LC retention time of 1090 s. In turn, `CC(C)Oc1ccc(-c2noc(CCn3nc(-c4ccc5c(c4)OCO5)ccc3=O)n2)cc1` showed an RP-LC retention time of 1020 s. Regarding `O=C(N[C@H]1C[C@@H]2C[C@H]1CN2C(=O)c1ccc2c(c1)OCO2)c1ccccc1`, the RP-LC retention time turned out to be 700 s. The same measure for `CC1Oc2ccc(-c3csc(NC(=O)c4ccc(F)cc4)n3)cc2NC1=O` (stereo not given): 879 s; for `CCC1CN2C=Nc3oc(C)c(C(=O)Nc4cccc(Cl)c4C)c3C2=N1` (stereo not given): 687 s.

`CCOc1ccc(-n2ccnc(NC(=O)Nc3ccc(C)c(C)c3)c2=O)cc1`: the RP-LC retention time turned out to be 1090 s. The result for `CCc1nc(-c2cc(S(=O)(=O)Nc3ccc(F)cc3F)c(C)s2)cs1` reads 994 s. The result for `CCCCCCNCc1ccc2c(c1)n(C)c(=O)n2C` reads 604 s; that for `Cc1ccc(-c2nnc(-c3cccnc3N3CCN(C(=O)c4ccc(Br)o4)CC3)o2)cc1`, 1020 s. The same measure for `CCCN1CCN(C(=O)c2cn3ccnc(-c4ccccc4)c3n2)CC1`: 706 s.

Turning to `COc1cc(NC(=O)C2(Cc3ccccc3)CCCCC(=O)N2)cc(OC)c1` (stereo not given), the RP-LC retention time is 847 s. Regarding `CC(C)c1nc2nccc(-c3ccc(F)cc3)n2n1`, the RP-LC retention time was 831 s. The same measure for `COc1ccc(OC)c(C(O)CN2CCN(c3ccccc3F)CC2)c1` (stereo not given): 677 s; for `O=C(C1CCCN(c2nccnc2Sc2ccccc2)C1)N1CCOCC1` (stereo not given): 850 s. As for `CCCn1cc(C(=O)NCCCN(C)C)c(S(=O)(=O)N2CCN(c3cccc(Cl)c3)CC2)n1`, the RP-LC retention time is 758 s. The same measure for `CCC(=O)N(CCOC)CC(=O)N1CCc2sccc2C1COc1ccccc1F` (stereo not given): 831 s.

`CSc1ccc(-c2nc3cnccn3c2Nc2cccc(C(=O)NCc3ccco3)c2)cc1`: the RP-LC retention time was 793 s. The same measure for `Cc1ccc(NS(=O)(=O)c2ccc3c(c2)C(=O)N(C)c2ncccc2O3)cc1C`: 970 s; for `CC(C)CN1N=C(C(=O)N2CCOCC2)S(=O)(=O)c2ccc(Cl)cc21`: 813 s.

Values taken from the METLIN SMRT retention time set (Domingo-Almenara et al. 2019).
